Measured values: US20120190703A1, “SALTS OF 13A-(S)DESOXYTYLOPHORININE, PREPARATION METHODS AND PHARMACEUTICAL COMPOSITIONS AND USES THEREOF” (priority 2009, published 2012)
Where two headings read alike, the source gives them in different places. Marks after values point to notes of the source that are not given here.

Columns and labels:
Solubility in water = assay type: physicochemical
[1] = preliminary toxic experiments, background art; cited from earlier work
mice Lewis lung cancer = conditions: background art; cited from earlier work
mice H22 liver cancer = conditions: background art; cited from earlier work
H22 tumor-bearing mice = conditions: intragastric once daily
From the text: To determine the pharmacodynamic characters of 13a-(S)-deoxytylophorinine and its salts, the impact of these compounds to the tumor growth in H22 tumor-bearing mice was surveyed.
Male Kunming mice were obtained from the Laboratory Animal Center, Academy of Military Medical Science. Body weight 18˜22 g. 6 animals per group, totally 10 groups, 60 animals.
(+)-13a-(S)-deoxytylophorinine, (+)-13a-(S)-deoxytylophorinine Tartrate, (+)-13a-(S)-deoxytylophorinine Maleate, (+)-13a-(S)-deoxytylophorinine Citrate, Cytoxane (CTX) as positive control.
(+)-13a-(S)-deoxytylophorinine was administered at high dose (5 mg/kg) and low dose (2.5 mg/kg). Three (+)-13a-(S)-deoxytylophorinine salts were administered at high dose and low dose as equal moles with their prototype (Tartrate: 7.05 mg/kg, 3.53 mg/kg; Malate: 6.60 mg/kg, 3.30 mg/kg; Citrate: 7.90 mg/kg, 3.95 mg/kg).
Animals were reared in SPF grade circumstance to be observed for 24 h. The tumor cells liquid which resuscitated in abdominal cavity of KM mice was diluted with aseptic normal saline at 1:3 ratio. The resulting liquid was inoculated subcutaneously at forelimb with 0.2 mL every animal. After the injection over, the animals were divided to […] with 6 animals per group.
Four experimental samples were intragastric administered once daily 24 h after inoculation. The positive control CTX was intraperitoneal injected once daily. The animal body weight was recorded every day.

[2] = Plasma pharmacokinetics after oral administration in mice; conditions: plasma
Procedure: To determine the pharmacokinetic characters of 13a-(S)-deoxytylophorinine and its salts, the studies about plasma pharmacokinetics and the character of distribution in brain were pursued.
Male ICR mice. Body weight 18˜22 g.
(+)-13a-(S)-deoxytylophorinine Tartrate, (+)-13a-(S)-deoxytylophorinine Maleate, (+)-13a-(S)-deoxytylophorinine Citrate. All were dissolved in distilled water as 0.6 mg/ml solution before experiment progressed.
72 mice were divided to 3 groups with 24 animals per group, fasting for 16 h and drinking water freely. […] Plasma was isolated by centrifugalization. After the salts were administered orally, the brain tissues of mice were collected at 5 min, 15 min, 2 h time points. 25% tissue homogenate was prepared with normal saline addition. 200 μL of homogenate and plasma were added isovolumic MeCN to precipitate protein. 5 μL of clear supernatant was analyzed by LC/MS/MS.
(+)-13a-(S)-deoxytylophorinine was dissolved in DMSO and then diluted with MeOH with concentration 10, 50, 100, 500, 1000 and 2500 ng/ml respectively. 10 μl of standard solutions of (+)-13a-(S)-deoxytylophorinine with different concentration above were added to 200 μl of blank plasma sequently to adjust the concentration to 0.5, 2.5, 5, 25, 50, 125 ng/ml respectively. MeCN was added to the solution to precipitate protein, and 5 μl of result clear supernatant was analyzed with LC/MS/MS. Linear regression was ran with the peak area of (+)-13a-(S)-deoxytylophorinine as ordinate and the concentrations as abscissa.

[3] = test system: Bel7402 human liver cancer cell; assay: Cytotoxic activity assay (MTT), Bel7402; assay type: cell-based; conditions: Bel-7402, 120 h, 5 days
Procedure: (§1) To evaluate the in vitro antitumor activity of (+)-13a-(S)-Deoxytylophorinine salts in this invention, Cytotoxic activity assay (MTT) experiment was persued.
(§2) 1. Tumor cells at log phase were incubated on 96-well plates at a density of 1˜1.0×10^4 cells/ml, 100 μl/well. Cells were cultured for 24 h at 37° C. in a cell incubator with 5% CO2.
(§3) 2. The treatment cells were exposed to the tested agents at different concentrations and cultured for 5 days in a cell incubator with full humidity incubator.
(§4) 3. The incubation medium was removed, then 100 μl 0.04% MTT was added to each well and Cells were cultured for 4 hours under the same conditions.
(§5) 4. The incubation medium was removed, then 150 μl DMSO was added to each well, the absorbance at a reference wavelength of 450 nm and a test wavelength of 570 nm was read. Drug inhibitory rate was calculated.

[4] = test system: Hct8 human colon cancer cell; assay: Cytotoxic activity assay (MTT), Hct8; assay type: cell-based; conditions: HCT-8, 120 h, 5 days
Procedure: as §1, §2, §3, §4, §5

[5] = high dose × 7 d, equal moles: prototype 5.0, tartrate 7.05, maleate 6.60, citrate 7.90 mg/kg
[6] = low dose × 7 d, equal moles: prototype 2.5, tartrate 3.53, maleate 3.30, citrate 3.95 mg/kg

COc1ccc2c3c(c4cc(OC)c(OC)cc4c2c1)CN1CCC[C@H]1C3 [(+)-13a-(S)-deoxytylophorinine, reference compound]
Solubility in water (Solubility in water): Insoluble | Solubility in water (words) (Solubility in water; statement in text, listed as 13a-(S)-Deoxytylophorinine): insoluble in water | Solubility in water (words) (Solubility in water; statement in text, listed as (+)-13a-(S)-Deoxytylophorinine): can not be dissolved in water | Toxicity in the liver and kidney [1]: not toxic in the liver and kidney | Anti-tumor proliferative activity, mice Lewis lung cancer (mice Lewis lung cancer): notable anti-tumor proliferative activity | Anti-tumor proliferative activity, mice H22 liver cancer (mice H22 liver cancer): notable anti-tumor proliferative activity | Animal No. (Initial/Final) (H22 tumor-bearing mice; [5]): 6/4 | Body Weight(g) Final (H22 tumor-bearing mice; [5]): 15.63 ± 2.16 g | Body Weight(g) Initial (H22 tumor-bearing mice; [5]): 23.50 ± 2.51 g⁻¹ | Inhibition (%) (H22 tumor-bearing mice; [5]): 74.02** % | Tumor Weight (g, mean ± SD) (H22 tumor-bearing mice; [5]): 0.30 ± 0.12 g | Animal No. (Initial/Final) (H22 tumor-bearing mice; [6]): 6/6 | Body Weight(g) Final (H22 tumor-bearing mice; [6]): 23.31 ± 2.14 g | Body Weight(g) Initial (H22 tumor-bearing mice; [6]): 23.00 ± 1.55 g⁻¹ | Inhibition (%) (H22 tumor-bearing mice; [6]): 42.79* % | Tumor Weight (g, mean ± SD) (H22 tumor-bearing mice; [6]): 0.66 ± 0.21 g | t½z ([2]; 6 mg/kg oral, mice, non-compartment model): 26.4 min | AUC(0-inf) ([2]; male, ICR, mouse, po, 6 mg/kg): 33.7 ng·h/mL | AUC(0-t) ([2]; male, ICR, mouse, po, 6 mg/kg): 33.3 ng·h/mL | Cmax ([2]; male, ICR, mouse, po, 6 mg/kg): 41.5 ng/mL | MRT inf ([2]; male, ICR, mouse, po, 6 mg/kg): 48 min | MRT last ([2]; male, ICR, mouse, po, 6 mg/kg): 46.2 min | Tmax ([2]; male, ICR, mouse, po, 6 mg/kg): 15 min

CC(O)C(=O)O.COc1ccc2c3c(c4cc(OC)c(OC)cc4c2c1)CN1CCC[C@H]1C3 [Lactate, (+)-13a-(S)-deoxytylophorinine Lactate]
Solubility in water (words) (Solubility in water): soluble in water | solubility (Solubility in water; water): 120 mg/mL | IC50 [3]: 40 nM | IC50 [4]: 79 nM
